This note sets out measurements from patent publication US7074743B1, “Herbicidal composition comprising 4-iodo-2-[3-(4-methoxy-6-methyl-1,3,5-triazin-2-yl)ureidosulfonyl]benzoic esters” (priority 1995, dated 2006).

Holding throughout (format): in vivo
For series [1], the system named is Avena fatua. As to the kind of experiment: Herbicidal action on AVEFA, visual scoring vs untreated, post-emergence 2-4 leaf stage. To be noted: Table 11. As to the method:
(§1) The examples given below were performed in the greenhouse and, in some cases, in field trials.
(§2) The herbicides, or combinations, were applied in cereals after the weeds had emerged naturally using plot sprayers. After application, the results, such as damage to the crop plants and effect on broad-leaved weeds/grass weeds were assessed by means of visual scoring. The herbicidal action was assessed qualitatively and quantitatively by comparing untreated and treated plots on the basis of the effect on plant growth and the development of chloroses and necroses down to the complete destruction of the weeds (0–100%). The application was effected when the crop plants and weeds were in the 2–4 leaf stage. The test was evaluated approximately 4 weeks after application.
(§3) In the greenhouse experiments, the crop plants and broadleaved weeds/grass weeds were grown in No. 13 pots and treated in the 2–4 leaf stage. The pots were subsequently placed in the greenhouse under good growth conditions (temperature, atmospheric humidity, water supply).
(§4) The assessments were carried out similarly to those in the field trials, i.e. visual scoring of the treated plants in comparison with untreated control variants. These assessments were carried out 3 weeks after applying the test preparations and their combinations. The experiments had been set up in two replications.
(§5) To assess the combination effects, the activities of the individual components were added and compared with the activity of the mixtures in equal doses. It was frequently observed that the efficacies of the combinations exceeded the total of the individual activities.
(§6) In cases with less clear effects, the expected value was calculated using Colby's formula and compared with the empirically determined result. The calculated efficacy of a combination which is expected in theory is determined is using S.R. Colby's formula: “Calculation of synergistic and antagonistic responses of herbicide combinations”, Weeds 15 (1967), pages 20 to 22.
(§7) [formula] where • X=% damage caused by herbicide A at a rate of ×kg a.i./ha; • Y=% damage caused by herbicide B at a rate of y kg a.i./ha; • Z=% damage caused by a further herbicide C at a rate of z kg a.i./ha; • E=expected value, i.e. expected damage caused by herbicides A+B (or A+B+C) at x+y (or x+y+z) kg a.i./ha.
(§8) Synergistic effects were assumed to be when the empirical value exceeded the expected value. In the case of combinations with individual components with the same active substances, comparisons via the total formula were also possible.

Series [2] has as its system Mercurialis annua. Nature of the series: Herbicidal action on MERAN, visual scoring vs untreated, post-emergence 2-4 leaf stage. To be noted: Table 11. The method, then: as §1, §2, §3, §4, §5, §6, §7, §8
Series [3] concerns Gallium aparine. As to the kind of experiment: Herbicidal action on GALAP, visual scoring vs untreated, post-emergence 2-4 leaf stage. To be noted: Table 11. The method, then: as §1, §2, §3, §4, §5, §6, §7, §8
Series [4] concerns Abuthilon theophrastis. Nature of the series: Herbicidal action on ABUTHE, visual scoring vs untreated, post-emergence 2-4 leaf stage. To be noted: Table 12; 4.5 g of ai/ha. The method, then: as §1, §2
(§9) In the greenhouse experiments, the crop plants and broadleaved weeds/grass weeds were grown in No. 13 pots and treated in the 2–4 leaf stage. […]
(§10) In cases with less clear effects, the expected value was calculated using Colby's formula and compared with the empirically determined result. The calculated efficacy of a combination which is expected in theory is determined is using S.R. Colby's formula: “Calculation of synergistic and antagonistic responses of herbicide combinations”, Weeds 15 (1967), pages 20 to 22. […]

Series [5] concerns Ambrosia elatior. Nature of the series: Herbicidal action on AMBEL, visual scoring vs untreated, post-emergence 2-4 leaf stage. To be noted: Table 12; 4.5 g of ai/ha. As to the method:
as §1, §2, §9, §10

Series [6] deals with Zea mays. As to the kind of experiment: Damage to crop plant ZEAMA, visual scoring vs untreated. To be noted: Table 12; 4.5 g of ai/ha. The method, then:
as §1, §2, §3, §4

As to `CP(=O)(O)CC[C@@H](N)C(=O)O` (racemic) [B49), 4-[hydroxy(methyl)phosphinoyl]-DL-homoalanine], the AVEFA % control in series [1] (150 g of a.i./ha) stood at 60%; in series [1] (300 g of a.i./ha) it was 70%; in series [1] (450 g of a.i./ha) it was 80%. Moreover, the MERAN % control in series [2] (150 g of a.i./ha) turned out to be 65%; in series [2] (300 g of a.i./ha), 78%; in series [2] (450 g of a.i./ha), 90%. The GALAP % control in series [3] (150 g of a.i./ha) was 55%; in series [3] (300 g of a.i./ha) it was 73%; in series [3] (450 g of a.i./ha), 85%.

In the case of `CCOC(=O)C(Cl)Cc1cc(-n2nc(C)n(C(F)F)c2=O)c(F)cc1Cl` (stereo not drawn) [B31), carfentrazone-ethyl], the ABUTHE % control in series [4] was found to be 60%. The AMBEL % control in series [5] was 0%. For the same molecule, the ZEAMA % damage in series [6] was 5%.
